Converted amounts (≈) assume the structure as drawn. Where two headings read alike, the source gives them in different places.
Key:
S. aureus 209P = assay: Antibacterial action, MIC against standard strain S. aureus 209P (standard method of the Japan Chemotherapeutic Association); format: cell-based; settings: Staphylococcus aureus, read-out: MIC S.a.
Procedure: (§1) The minimum inhibitory concentrations (MIC; μg/ml) of specimen compounds against standard strains [S. aureus 209P (S.a.), S. epidermidis IFO 12293 (S.e.) and P. aeruginosa IFO 3445 (P.a.)] were determined in accordance with the standard method (CHEMOTHERAPY, 29(1), 76, 1981) prescribed by The Japan Chemotherapeutic Association.

S. epidermidis IFO 12293 = assay: Antibacterial action, MIC against standard strain S. epidermidis IFO 12293; format: cell-based; settings: Staphylococcus epidermidis
Procedure: as §1

P. aeruginosa IFO 3445 = assay: Antibacterial action, MIC against standard strain P. aeruginosa IFO 3445; format: cell-based; settings: Pseudomonas aeruginosa
Procedure: as §1

[1] = Urinary recovery rate upon oral administration to rats; format: in vivo, male SD rats; settings: urine, rat, 20 mg/kg or 10 mg/kg, paper disk method; for dose excreted at 6 h: 0-6 hours; for dose excreted at 24 h: 6-24 hours
Procedure: (§2) The recovery rates in both urine and bile of compounds according to the present invention upon oral administration to rats were determined to evaluate their absorbability and excretory behavior. (a) Urinary Recovery Rate Male SD rats aged 6 weeks fasted overnight were forced to orally administer a 0.5% methyl cellulose suspension (20 mg/10 ml/kg or 10 mg/10 ml/kg) of each of specimen compounds using a peroral sound. Urine was collected twice in the course of from 0 up to 6 hours and from 6 up to 24 hours after the administration. The concentration of the specimen compound in the urine was determined by a paper disk method using Bacillus subtilis ATCC 6633 as a tester strain to find its recovery rate in urine.

[2] = Biliary recovery rate upon oral administration to rats; format: in vivo, male SD rats; settings: bile, rat, 20 mg/kg or 10 mg/kg, 0-24 hours, after hydrolysis with the alkali
Procedure: (§3) The recovery rates in both urine and bile of compounds according to the present invention upon oral administration to rats were determined to evaluate their absorbability and excretory behavior.
(2) Biliary Recovery Rate
(§4) A polyethylene tube was inserted into the common bile ducts of male SD rats aged 6 weeks fasted overnight under etherization. After the anesthetic wore away, the rats were forced to orally administer each of the specimen compounds in the same manner as in the item (a) to collect bile till 24 hours after the administration. The concentration of the specimen compound in the bile was determined in the same manner as in the item (a) after hydrolysis with an alkali (0.1N, NaOH, 37° C., 1 hour) or without being subjected to any treatment, thereby finding its recovery rate in bile.

[3] = Total recovery rate in urine and bile upon oral administration to rats; format: in vivo, male SD rats; settings: rat, 20 mg/kg or 10 mg/kg, urine plus bile, 0-24 hours
Procedure: as §3
as §2, with “Male” for “The recovery rates in both urine and bile of compounds according to the present invention upon oral administration to rats were determined to evaluate their absorbability and excretory behavior. (a) Urinary Recovery Rate Male”
as §4

[4] = IFO12293, S. epidermidis IFO 12293, read-out: MIC S.e.
[5] = IFO3445, P. aeruginosa IFO 3445, read-out: MIC P.a.

MIC (S. aureus 209P; S. aureus 209P) | MIC (S. epidermidis IFO 12293; [4]) | MIC (P. aeruginosa IFO 3445; [5]) | dose excreted at 6 h [1] | dose excreted at 24 h [1] | dose excreted at 24 h [2] | dose excreted at 24 h [3] | SMILES | MIC (S. aureus 209P; 209P) | MIC (S. epidermidis IFO 12293; IFO12293, read-out: MIC S.e.) | MIC (P. aeruginosa IFO 3445; IFO3445, read-out: MIC P.a.)
0.05 µg/mL (≈ 0.127 µM) | 0.2 µg/mL (≈ 0.51 µM) | 0.78 µg/mL (≈ 1.99 µM) |  |  |  |  | C[C@@H]1CN(c2c(F)c(N)c3c(=O)c(C(=O)O)cn(C4CC4)c3c2F)C[C@H](C)N1 [Sparfloxacin, reference compound] |  |  | 
0.013 µg/mL (≈ 0.0345 µM) | 0.05 µg/mL (≈ 0.133 µM) | 0.39 µg/mL (≈ 1.03 µM) |  |  |  |  | CNc1c(F)cc2c(=O)c(C(=O)O)cn(-c3cc(N)c(F)cc3F)c2c1C [Example 16, 1-(5-Amino-2,4-difluorophenyl)-6-fluoro-8-methyl-7-methylamino-4-oxo-1,4-dihydroquinoline-3-carboxylic Acid] |  |  | 
0.013 µg/mL (≈ 0.0344 µM) | 0.05 µg/mL (≈ 0.132 µM) | 0.78 µg/mL (≈ 2.06 µM) |  |  |  |  | COc1c(F)cc2c(=O)c(C(=O)O)cn(-c3cc(N)c(F)cc3F)c2c1C [Example 99, 1-(5-Amino-2,4-difluorophenyl)-6-fluoro-7-methoxy-8-methyl-4-oxo-1,4-dihydroquinoline-3-carboxylic Acid] |  |  | 
0.006 µg/mL (≈ 0.015 µM) | 0.025 µg/mL (≈ 0.0627 µM) | 0.39 µg/mL (≈ 0.978 µM) |  |  |  |  | CNc1c(F)cc2c(=O)c(C(=O)O)cn(-c3nc(N)c(F)cc3F)c2c1Cl [Example 28, 1-(6-Amino-3,5-difluoropyridin-2-yl)-8-chloro-6-fluoro-7-methylamino-4-oxo-1,4-dihydroquinoline-3-carboxylic Acid] |  |  | 
0.013 µg/mL (≈ 0.0331 µM) | 0.013 µg/mL (≈ 0.0331 µM) | 0.39 µg/mL (≈ 0.992 µM) |  |  |  |  | CNc1c(F)c(O)c2c(=O)c(C(=O)O)cn(-c3cc(N)c(F)cc3F)c2c1C [Example 98, 1-(5-Amino-2,4-difluorophenyl)-6-fluoro-5-hydroxy-8-methyl-7-methylamino-4-oxo-1,4-dihydroquinoline-3-carboxylic Acid] |  |  | 
0.2 µg/mL (≈ 0.553 µM) | 0.39 µg/mL (≈ 1.08 µM) | 0.78 µg/mL (≈ 2.16 µM) | 21.2% | 13.7% | 48.3% | 83.2% | C[C@H]1COc2c(N3CCN(C)CC3)c(F)cc3c(=O)c(C(=O)O)cn1c23 [Levofloxacin, reference compound] |  |  | 
0.006 µg/mL (≈ 0.0153 µM) | 0.013 µg/mL (≈ 0.0332 µM) | 0.39 µg/mL (≈ 0.997 µM) |  |  |  |  | CNc1c(F)c(C)c2c(=O)c(C(=O)O)cn(-c3cc(N)c(F)cc3F)c2c1C [Example 59, 1-(5-Amino-2,4-difluorophenyl)-6-fluoro-5,8-dimethyl-7-methylamino-4-oxo-1,4-dihydroquinoline-3-carboxylic Acid] |  |  | 
 |  |  |  |  |  |  | O=C(O)c1cn(C2CC2)c2cc(N3CCNCC3)c(F)cc2c1=O [Cyprofloxacin, reference compound] | 0.1 µg/mL (≈ 0.302 µM) | 0.78 µg/mL (≈ 2.35 µM) | 0.39 µg/mL (≈ 1.18 µM)
0.05 µg/mL (≈ 0.124 µM) | 0.2 µg/mL (≈ 0.495 µM) | 0.39 µg/mL (≈ 0.965 µM) | 19% | 12.3% | 9.2% | 40.5% | NC1CCN(c2nc3c(cc2F)c(=O)c(C(=O)O)cn3-c2ccc(F)cc2F)C1 (stereo not drawn) [Tosufloxacin, reference compound] |  |  | 
0.013 µg/mL (≈ 0.0339 µM) | 0.05 µg/mL (≈ 0.13 µM) | 0.2 µg/mL (≈ 0.521 µM) | 9.7% | 13.7% | 90% | 113% | Nc1cc(-n2cc(C(=O)O)c(=O)c3cc(F)c(N)c(Cl)c32)c(F)cc1F [Example 11, 7-Amino-1-(5-amino-2,4-difluorophenyl)-8-chloro-6-fluoro-4-oxo-1,4-dihydroquinoline-3-carboxylic Acid] |  |  | 
0.013 µg/mL (≈ 0.0327 µM) | 0.025 µg/mL (≈ 0.0629 µM) | 0.2 µg/mL (≈ 0.503 µM) | 1.2% | 2.6% | 103% | 107% | CNc1c(F)cc2c(=O)c(C(=O)O)cn(-c3cc(N)c(F)cc3F)c2c1Cl [Example 14, 1-(5-Amino-2,4-difluorophenyl)-8-chloro-6-fluoro-7-methylamino-4-oxo-1,4-dihydroquinoline-3-carboxylic Acid] |  |  | 
0.013 µg/mL (≈ 0.0315 µM) | 0.025 µg/mL (≈ 0.0606 µM) | 0.2 µg/mL (≈ 0.485 µM) |  |  |  |  | CNc1c(F)c(N)c2c(=O)c(C(=O)O)cn(-c3cc(N)c(F)cc3F)c2c1Cl [Example 70, 5-Amino-1-(5-amino-2,4-difluorophenyl)-8-chloro-6-fluoro-7-methylamino-4-oxo-1,4-dihydroquinoline-3-carboxylic Acid] |  |  | 
0.006 µg/mL (≈ 0.0135 µM) | 0.025 µg/mL (≈ 0.0564 µM) | 0.78 µg/mL (≈ 1.76 µM) |  |  |  |  | CNc1c(F)cc2c(=O)c(C(=O)O)cn(-c3nc(N)c(F)cc3F)c2c1Br [Example 30, 1-(6-Amino-3,5-difluoropyridin-2-yl)-8-bromo-6-fluoro-7-methylamino-4-oxo-1,4-dihydroquinoline-3-carboxylic Acid] |  |  | 
0.013 µg/mL (≈ 0.0358 µM) | 0.05 µg/mL (≈ 0.138 µM) | 0.1 µg/mL (≈ 0.275 µM) | 4.8% | 10.8% | 81.7% | 97.3% | Cc1c(N)c(F)cc2c(=O)c(C(=O)O)cn(-c3cc(N)c(F)cc3F)c12 [Example 12, 7-Amino-1-(5-amino-2,4-difluorophenyl)-6-fluoro-8-methyl-4-oxo-1,4-dihydroquinoline-3-carboxylic Acid] |  |  | 
0.013 µg/mL (≈ 0.0309 µM) | 0.025 µg/mL (≈ 0.0593 µM) | 0.78 µg/mL (≈ 1.85 µM) |  |  |  |  | Cc1c(NCCCO)c(F)cc2c(=O)c(C(=O)O)cn(-c3cc(N)c(F)cc3F)c12 [Example 88, 1-(5-Amino-2,4-difluorophenyl)-8-methyl-6-fluoro-7-(3-hydroxy-n-propylamino)-4-oxo-1,4-dihydroquinoline-3-carboxylic Acid] |  |  | 
0.006 µg/mL (≈ 0.0146 µM) | 0.013 µg/mL (≈ 0.0316 µM) | 0.2 µg/mL (≈ 0.486 µM) |  |  |  |  | CNc1c(F)c(C)c2c(=O)c(C(=O)O)cn(-c3cc(N)c(F)cc3F)c2c1Cl [Example 56, 1-(5-Amino-2,4-difluorophenyl)-8-chloro-6-fluoro-5-methyl-7-methylamino-4-oxo-1,4-dihydroquinoline-3-carboxylic Acid] |  |  | 
 |  |  | 7.6% | 2.7% | 11.1% | 21.5% | Nc1cc(-n2cc(C(=O)O)c(=O)c3cc(F)c(N4CC(N)C4)c(Cl)c32)c(F)cc1F [Referential compound, 7(3-Aminoazetidin-1-yl)-1-(5-amino-2,4-difluoro-phenyl)-8-chloro-6-fluoo-4-oxo-1,4-dihydroquinoline-3-carboxylic acid, reference compound] |  |  | 
0.013 µg/mL (≈ 0.0306 µM) | 0.013 µg/mL (≈ 0.0306 µM) | 0.39 µg/mL (≈ 0.918 µM) |  |  |  |  | C=CCNc1c(F)cc2c(=O)c(C(=O)O)cn(-c3nc(N)c(F)cc3F)c2c1Cl [Example 77, 7-Allylamino-1-(6-amino-3,5-difluoropyridin-2-yl)-8-chloro-6-fluoro-4-oxo-1,4-dihydroquinoline-3-carboxylic Acid] |  |  | 
0.013 µg/mL (≈ 0.0314 µM) | 0.05 µg/mL (≈ 0.121 µM) | 0.39 µg/mL (≈ 0.942 µM) |  |  |  |  | CNc1c(F)cc2c(=O)c(C(=O)O)cn(-c3cc(N)c(F)cc3Cl)c2c1Cl [Example 19, 1-(5-Amino-2-chloro-4-fluorophenyl)-8-chloro-6-fluoro-7-methylamino-4-oxo-1,4-dihydroquinoline-3-carboxylic Acid] |  |  | 
